Literature values, collected in patent US20250275935A1, “COMPOSITIONS AND METHODS FOR TREATING PATIENTS WITH DEMENTIA DUE TO ALZHEIMER'S DISEASE WITH A COMBINATION OF THC AND MELATONIN” (IGC Pharma IP, LLC, priority 2021, published 2025).

Columns and labels:
[1] = general statement, no test described
mice = settings: THC 3 mg/kg bodyweight per day, four weeks
[2] = 4.5 mg/day THC
[3] = tested on: patient having severe Alzheimer's disease; settings: 4.9-6.7 mg dronabinol with 10 mg donepezil and 50 mg sertraline daily; decreased from 20

## COc1ccc2[nH]cc(CCNC(C)=O)c2c1 [Melatonin, N-acetyl-5-methoxytryptamine]
[1]
  solubility in water: typically insoluble in water

## CCCCCc1cc(O)c2c(c1)OC(C)(C)[C@@H]1CCC(C)=C[C@@H]21 [THC, Tetrahydrocannabinol]
mice; mature (12 months) and old (18 months) mice
  cognitive performance (learning and memory): cognitive deficits in learning and memory were erased
mice; young mice (2 month)
  cognitive performance: performed worse than the control group of young mice
[2]
  agitation or reduction from baseline of NPI total score versus placebo: No differences were shown

## COc1cc(/C=C/C(=O)CC(=O)/C=C/c2ccc(O)c(OC)c2)ccc1O [curcumin]
[1]
  solubility in water: only poorly soluble in water

## CCCCCc1cc(O)c2c(c1)OC(C)(C)[C@@H]1CCC(C)=C[C@@H]21 [dronabinol]
[3]
  NPI total score: 15

## C[C@@H]1O[C@@H](OC[C@H]2O[C@@H](Oc3c(-c4ccc(O)c(O)c4)oc4cc(O)cc(O)c4c3=O)[C@H](O)[C@@H](O)[C@@H]2O)[C@H](O)[C@H](O)[C@H]1O [rutin]
[1]
  solubility in water: only poorly soluble in water
